{"source": "patent US20110059174A1", "about": "“PKCdelta REGULATES NEUROINFLAMMATORY EVENTS” (IOWA STATE UNIVERSITY RESEARCH FOUNDATION, INC., priority 2009, published 2011)", "key": {"BV-2 cells": {"test_system": "BV-2 cells", "test": "TNFα release from BV-2 cells exposed to MMP-3 or MPP (Luminex)", "type": "cell-based", "procedure": "FIG. 6. MMP3-induces TNFα release in BV2 cells. […] After 24 h, the amount of TNFa released into the extracellular medium were determined in Luminex assays (see methods for details). n=6 ** p<0.01 compared to control.\n(§1) Microglial cells are the primary immune cells in the CNS and are the major source of TNFα during neuroinflammation. Therefore, in this section, we examined the possible mechanisms that could regulate TNFα release during microglial activation. In particular, we examined whether PKCδ plays any role in the production and release of cytokines. For these studies, we used LPS as a microglial activator on BV2 cells, a widely used microglial cell line. BV-2 cells were exposed to LPS (1 μg/ml) in the presence or absence of PKCδ inhibitor rottlerin (1-3 μM). […] After 16 hr, cell-free supernatants were collected and TNFα levels were quantified using a multiplex bead-based luminex® assay system, as described in the methods.\nMatrix metalloproteinases (MMPs) are a family of highly homologous protein-degrading zinc dependent endopeptidases. […] Therefore, we examined if MMP-3 could trigger TNFα release in BV-2 cells. […] Following 24 hr of MMP-3 treatment, supernatants were collected from extracellular medium and TNFα levels were determined using a Luminex immunoassay. […]"}, "primary mouse microglia": {"test_system": "primary mouse microglia", "test": "LPS-induced cytokine release from primary mouse microglia (Luminex immunoassay)", "type": "cell-based", "procedure": "FIG. 8. Effect of PKCδ inhibitor rottlerin on LPS-induced TNFα release from primary mouse microglia. Primary microglia were treated with 100 ng/ml LPS for 24 hr in the presence of PKCδ inhibitor rottlerin (1 μM and 3 μM). TNFα levels in the culture medium were quantified using a multiplex bead-based luminex® immunoassay. *** p<0.001 compared to controls; […] ### p<0.001 compared to LPS treatment; N=5.\n(§2) FIG. 10. PKCδ inhibitor rottlerin suppresses pro-inflammatory cytokine release in primary mouse microglia. Primary microglia were isolated by differential adherence from post-natal mixed-glial cultures and purity verified to be more than 95% by immunocytochemistry. Primary microglia were treated with LPS (100 ng/ml) for 24 hrs or pre-treated with the PKCδ inhibitor rottlerin (1 μM) and then treated with LPS. After treatment, supernatants were collected and proinflammatory cytokine levels were assayed using a multiplexed luminex assay.\nTo extend the results obtained with the BV2 microglial cell line to primary microglia, we performed some preliminary studies in primary microglia isolated from post-natal day 2 (PND-2) C57 black mice as described previously (Floden et al. 2006). Briefly, the brain tissues from PND-2 mice were gently triturated in ice-cold Ca^2+ and Mg^2+-free HBSS. The cells were spun down and cultured using DMEM/F-12 medium containing 10% heat-inactivated FBS, antibiotics and essential nutrients, as described previously (Liu et al. 2002). After 12-14 days, microglia were harvested by the differential shaking method (350 rpm for 4 hr) and grown on poly-D lysine coated 24-well plates. Primary microglia were then fixed with 4% paraformaldehyde and processed for immunohistochemical staining using CD 11b (microglial marker) monoclonal antibody followed by Alexa 568-conjugated secondary antibody (red). Nuclei were stained with TO-PRO-3 dye (blue). The cells were viewed using a Nikon TE2000 microscope, and images were captured by SPOT digital camera. […] Additionally, we have established a microglia isolation procedure using magnetic labeled CD11b (MACs CD11b+) microbeads followed by AutoMACS cell sorting, which also yielded over 95% pure microglia.\nWe extended this study to primary microglia. CD11b+ primary microglia cultures were prepared, as described in the previous section. The primary microglial cultures were treated with 100 ng/ml LPS for 24 hr in the presence of various doses of the PKCδ inhibitor rottlerin (1 μM and 3 μM). TNFα levels in the culture medium were quantified using a multiplex bead-based Luminex® immunoassay. […] 3 μM rottlerin reduced LPS-induced TNFα release by 75%. Consistent with the BV2 cell line data presented in the original proposal, the new results provide further evidence that PKCδ can regulate TNFα release in primary microglia during neuroinflammation.\nas §2, with “microglia. Primary Microglia were isolated” for “microglia. Primary microglia were isolated”"}, "[1]": {"test_system": "nigral dopaminergic neurons", "details": "MPTP-induced animal model of Parkinson's disease; cited from earlier work"}, "PKCδ": {"test_system": "PKCδ", "details": "dose range 1-3 μM; cited from earlier work"}, "[2]": {"details": "dose range 1-3 μM; cited from earlier work"}, "BV-2 microglia": {"test_system": "BV-2 microglia", "test": "LPS induced cytokine release in BV-2 microglia (Luminex immunoassay)", "type": "cell-based", "details": "BV-2 cells", "procedure": "FIG. 1. […] BV-2 microglia were exposed to 1 μg/ml LPS with and without rottlerin (1 to 3 μM) for 16 hrs and cell free supernatants were collected.\nBV-2 microglia were transfected with 20 nM PKCδ siRNA and non-specific siRNA. 24 hr later transfected cells were treated with LPS (1 μg/ml) for 16 hrs and cell free supernatants were collected. Specificity of PKCδ suppression was assessed by western blotting.\nas §1\nIn this experiment, we examined whether PKCδ-siRNA mediated knockdown of PKCδ, would suppress LPS-induced TNFα release in BV-2 cells."}, "PKCδ promoter": {"test_system": "PKCδ promoter", "test": "PKCδ promoter luciferase reporter assay in BV-2 cells", "type": "cell-based, mouse", "source_text": "FIG. 4. PKCδ promoter structure and site-directed mutagenesis of NFkB binding sites. (A) The ˜2 kb fragment of mouse PKCδ promoter region (relative to the transcription start site) was cloned using genomic DNA prepared from MN9D cells by the fusion PCR technique. PKCδ promoter fragment was cloned into promoter-less pGL3-basic vector with a luciferase reporter gene (Luc). (B). Site-specific mutagenesis of two NFkB sites present in the PKCδ promoter region.\nFIG. 5. Mutation of NFkB sites block TNFa induced PKCδ promoter activity. Briefly, BV2 cells, were transfected with promoter constructs coding for native or NFkB mutated PKCδ promoter (see FIG. 10). 12 h after transfection, cells were exposed to 30 ng/ml TNF with or without etanercept (ETA). 24 h later, cell lsyates were subject to luciferase assay.\nSince PKCδ upregulation was observed during neuroinflammation (FIG. 4A), we sought to determine mechanisms that regulate PKCδ expression via transcriptional activation. We first cloned the full-length mouse PKCδ promoter (2 Kb) from genomic DNA using the fusion PCR technique (FIG. 5A). The resulting PKCδ promoter 2 Kb fragment was cloned into the promoter-less pGL3-luciferase reporter vector. Binding of the transcription factors to the PKCδ promoter region would result in the expression of luciferase enzyme. […]"}, "[3]": {"details": "LPS-stimulated primary mouse microglia"}, "[4]": {"details": "LPS and rottlerin treated samples, data not shown"}}}
{"compound": "C[n+]1ccc(-c2ccccc2)cc1", "note": "[MPP, 1-methyl-4-phenylpyridinium]", "values": [{"measurement": "TNFα release from BV-2 cells", "setting": "BV-2 cells; 24 hr exposure to 300 μM, data not shown", "result": "failed to release TNFα"}]}
{"compound": "CC(=O)c1c(O)c(C)c(O)c(Cc2c(O)c3c(c(C(=O)/C=C/c4ccccc4)c2O)OC(C)(C)C=C3)c1O", "note": "[rottlerin, 3-[(8-Cinnamoyl-5,7-dihydroxy-2,2-dimethyl-2H-1-benzopyran-6-yl)methyl]-2′,4′,6′-trihydroxy-5-methylaceophenone]", "values": [{"measurement": "release of IL-6", "setting": "primary mouse microglia; [3]", "result": "decrease"}, {"measurement": "release of IL-12", "setting": "primary mouse microglia; [3]", "result": "decrease"}, {"measurement": "reduction of LPS-induced TNFα release", "setting": "primary mouse microglia; primary microglia, 100 ng/ml LPS 24 hr, 3 μM rottlerin", "result": 75, "unit": "%"}, {"measurement": "LPS-induced TNFα levels", "setting": "primary mouse microglia; primary microglia, 100 ng/ml LPS 24 hr, rottlerin 1 μM and 3 μM, dose dependent", "result": "significantly suppressed"}, {"measurement": "pro-inflammatory cytokine release", "setting": "primary mouse microglia; primary microglia, pre-treated with rottlerin 1 μM, LPS 100 ng/ml 24 hrs", "result": "suppresses"}, {"measurement": "nigral dopaminergic neuronal death", "setting": "[1]", "result": "protects"}, {"measurement": "PKCδ inhibition", "setting": "PKCδ", "result": "effectively inhibits PKCδ"}, {"measurement": "toxicity", "setting": "[2]", "result": "does not cause any toxicity"}, {"measurement": "LPS-induced TNFα release", "setting": "BV-2 microglia; LPS 1 μg/ml, rottlerin 1-3 μM, 16 hr", "result": "dose-dependently blocked"}, {"measurement": "LPS-induced IL-6 levels", "setting": "BV-2 microglia; [4]", "result": "no effect"}, {"measurement": "LPS-induced IL-12 levels", "setting": "BV-2 microglia; [4]", "result": "no effect"}]}
{"compound": "Etanercept", "values": [{"measurement": "TNFα-induced PKCδ promoter activity", "setting": "PKCδ promoter; BV-2 cells, 30 ng/ml TNF with etanercept, 24 h, luciferase", "result": "blocked"}]}
{"compound": "ProMMP3: inactive proMMP-3", "values": [{"measurement": "levels of TNFα compared to control", "setting": "BV-2 cells; BV-2 cells, 400 ng/ml, 24 hr", "result": "did not induce any significant levels"}]}
{"compound": "TNFα", "values": [{"measurement": "PKCδ promoter activity", "setting": "PKCδ promoter; BV-2 cells expressing 148 bp minimal PKCδ promoter construct, 30 ng/ml TNF", "result": "significant increase"}]}
